# Data taken from patent US9226913B2, “Methods of treating cancer using a combination of an immunomodulatory compound and an artemisinin or a derivative thereof” (Celgene Corporation, priority 2010, dated 2016).
# Where two headings read alike, the source gives them in different places.
# Legend:
# [1] = system: HCT116^norm cells; conditions: read-out: concentration required to achieve ~50% cell kill, ART and OXP used simultaneously, ART + OXP combination (ratio 1:2.5)
# Description: The combination studies followed an approach previously described (Gordi et al., 2004, Toxicol. Lett. 147: 99-107). HCT116^norm, A549, MCF7 and HCT116^poly cells (5×10^4/well) growing exponentially were reset in fresh culture medium and aliquoted into 96-well plates. ART was the primary drug partner and combined with OXP at an equal ratio of their respective IC50 (eg. ½×IC50 of ART was combined with ½×IC50 of OXP). Fixing this ratio also kept constant the amount of one drug respective to the other. For instance, ART was combined with OXP at a constant ratio of 1:2.5. Cells were incubated for 72 hr in a humidified atmosphere with 5% CO2 in air at 37° C. Cell number was assessed by the MTT assay as described previously. The activities of drug combinations were established by comparing optical density readings from the treated wells with the control wells with no drug treatment, and the natures of drug-drug interactions then assessed by calculating a combination index (CI) by using the median-effect equation, where CI-values of 1 indicated additivity; CI<1 indicated synergy and CI>1 indicated antagonism.
# [2] = system: MCF7 cells; assay: MTT proliferation assay, 72 hr (Example 6.2); format: cell-based, human; conditions: MCF7, 72 h, mean ± SD of at least five experiments
# Description: (§1) The human cancer cell lines; MCF7 (breast), HCT116 (colon) and A549 (lung) (Cancer Research UK, London, UK), were grown in either DMEM (Sigma) or RPMI (Sigma) media supplemented with 10% foetal bovine serum, 2 mM L-glutamine, 1% penicillin/streptomycin.
# (§2) To study the effect of each agent on cell growth, cells growing exponentially were added to 96-well plates at a density of 3×10^4/well. Drugs (0.1-100 μM) were then added to the wells, ensuring an equal volume of 200 μl across the plate. Cell number was measured at 72 hr using a standard methylthiazoletetrazolium (MTT)-based assay without modifications as described previously (Gordi et al., 2004, Toxicol. Lett. 147: 99-107). Briefly, MTT (Sigma) was added to each well to give a working concentration of 0.4 mg/ml, and plates returned to the incubator for a further 1 hr. After this time, the medium was aspirated off, 200 μl of DMSO was then added to each well, and plates agitated gently for 5 min before measuring optical density at 540 nm in each well.
# [3] = system: HCT116^norm cells; assay: MTT proliferation assay, 72 hr (Example 6.2); format: cell-based, human
# Description: as §1, §2
# [4] = system: A549 cells; assay: MTT proliferation assay, 72 hr (Example 6.2); format: cell-based, human; conditions: A549, 72 h, mean ± SD of at least five experiments
# Description: as §1, §2
# [5] = system: HCT116^poly cells; assay: MTT proliferation assay, 72 hr (Example 6.2); format: cell-based, human; conditions: HCT116^poly (polyploid extended-passage variant)
# Description: as §2
structure (smiles),measurement,setting,value
"O=C1[O][Pt]2([NH][C@@H]3CCCC[C@H]3[NH]2)[O]C1=O [Oxaliplatin, oxaliplatin]",IC50,[1],1.6 µM
same,IC50,[2],6.1 ± 1.1 µM
same,IC50,"[3]; 72 h, MTT, mean ± SD of at least five experiments, listed as OXP, read-out: IC50",5.3 µM
same,IC50,"[3]; 72 h, MTT, mean ± SD of at least five experiments, read-out: IC50",4.05 ± 1.8 µM
same,IC50,"[3]; single agent, read-out: concentration required to achieve ~50% cell kill, used separately",4 µM
same,IC50,[4],6.2 ± 0.95 µM
same,IC50,[5],5.8 µM
